Values of other authors, collected in patent publication US20220112625A1, “Diagnosing and Treating Neurological and Autoimmune Diseases by Optimizing Metabolic Responses” (priority 2017, published 2022).

Columns and labels:
PI3Kδ = PI3Kδ (Homo sapiens, UniProt O00329); details: PI3Kγ versus PI3Kδ
PI3Kβ = PI3Kβ (Homo sapiens, UniProt P42338); details: PI3Kγ versus PI3Kβ
PI3Kα = PI3Kα (Homo sapiens, UniProt P42336); details: PI3Kγ versus PI3Kα
[1] = system: class I and class II PI3Ks
mTOR = mTOR (Homo sapiens, UniProt P42345); details: up to at least about 10 μM

PI3Kβ, sequence (P42338 whole entry, species assumed): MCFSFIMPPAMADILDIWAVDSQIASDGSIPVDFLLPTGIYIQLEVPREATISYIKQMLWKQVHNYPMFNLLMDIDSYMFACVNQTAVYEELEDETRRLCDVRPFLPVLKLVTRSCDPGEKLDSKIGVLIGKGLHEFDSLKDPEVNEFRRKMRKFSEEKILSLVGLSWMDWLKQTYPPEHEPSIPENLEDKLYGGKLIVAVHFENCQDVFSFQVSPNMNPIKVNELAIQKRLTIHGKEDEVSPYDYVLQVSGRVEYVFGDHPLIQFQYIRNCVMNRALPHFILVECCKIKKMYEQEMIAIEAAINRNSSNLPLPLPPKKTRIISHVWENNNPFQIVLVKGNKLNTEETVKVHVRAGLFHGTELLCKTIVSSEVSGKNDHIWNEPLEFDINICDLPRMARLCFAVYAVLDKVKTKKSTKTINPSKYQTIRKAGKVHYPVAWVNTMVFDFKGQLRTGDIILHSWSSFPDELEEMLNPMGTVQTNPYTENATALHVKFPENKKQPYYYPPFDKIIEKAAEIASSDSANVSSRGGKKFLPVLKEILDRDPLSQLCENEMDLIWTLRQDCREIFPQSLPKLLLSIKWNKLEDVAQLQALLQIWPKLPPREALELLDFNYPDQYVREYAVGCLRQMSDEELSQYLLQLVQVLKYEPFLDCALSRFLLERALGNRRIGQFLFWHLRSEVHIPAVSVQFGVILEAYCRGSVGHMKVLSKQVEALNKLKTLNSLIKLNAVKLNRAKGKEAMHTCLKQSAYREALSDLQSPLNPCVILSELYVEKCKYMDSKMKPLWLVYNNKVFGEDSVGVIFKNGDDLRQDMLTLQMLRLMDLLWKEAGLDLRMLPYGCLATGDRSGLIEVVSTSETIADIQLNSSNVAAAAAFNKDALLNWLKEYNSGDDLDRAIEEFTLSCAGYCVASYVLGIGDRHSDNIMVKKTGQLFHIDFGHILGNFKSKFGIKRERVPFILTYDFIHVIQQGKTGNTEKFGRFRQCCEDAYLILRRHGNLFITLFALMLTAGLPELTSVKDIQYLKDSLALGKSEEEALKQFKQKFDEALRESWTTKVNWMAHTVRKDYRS
PI3Kβ, sequence (P27986 whole entry partner, species assumed): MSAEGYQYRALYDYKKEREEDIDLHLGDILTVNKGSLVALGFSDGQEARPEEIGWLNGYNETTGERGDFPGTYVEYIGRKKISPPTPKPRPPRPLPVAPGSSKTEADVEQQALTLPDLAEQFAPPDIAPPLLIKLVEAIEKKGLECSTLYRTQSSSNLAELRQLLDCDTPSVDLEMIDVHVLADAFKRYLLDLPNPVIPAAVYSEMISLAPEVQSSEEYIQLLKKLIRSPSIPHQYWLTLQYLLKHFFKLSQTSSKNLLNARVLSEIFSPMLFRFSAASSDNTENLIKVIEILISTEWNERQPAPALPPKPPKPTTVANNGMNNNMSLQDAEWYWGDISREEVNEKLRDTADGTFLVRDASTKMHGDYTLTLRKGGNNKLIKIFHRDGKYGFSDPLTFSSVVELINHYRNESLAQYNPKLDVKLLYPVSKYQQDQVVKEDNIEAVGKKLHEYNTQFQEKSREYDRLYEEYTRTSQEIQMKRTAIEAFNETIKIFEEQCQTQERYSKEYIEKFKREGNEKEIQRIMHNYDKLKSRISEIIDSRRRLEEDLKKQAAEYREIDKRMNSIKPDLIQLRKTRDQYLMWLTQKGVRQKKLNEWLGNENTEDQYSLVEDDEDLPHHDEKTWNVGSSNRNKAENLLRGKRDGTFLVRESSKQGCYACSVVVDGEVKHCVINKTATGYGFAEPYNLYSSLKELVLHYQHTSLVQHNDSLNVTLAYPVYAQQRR
PI3Kα, sequence (P42336 whole entry, species assumed): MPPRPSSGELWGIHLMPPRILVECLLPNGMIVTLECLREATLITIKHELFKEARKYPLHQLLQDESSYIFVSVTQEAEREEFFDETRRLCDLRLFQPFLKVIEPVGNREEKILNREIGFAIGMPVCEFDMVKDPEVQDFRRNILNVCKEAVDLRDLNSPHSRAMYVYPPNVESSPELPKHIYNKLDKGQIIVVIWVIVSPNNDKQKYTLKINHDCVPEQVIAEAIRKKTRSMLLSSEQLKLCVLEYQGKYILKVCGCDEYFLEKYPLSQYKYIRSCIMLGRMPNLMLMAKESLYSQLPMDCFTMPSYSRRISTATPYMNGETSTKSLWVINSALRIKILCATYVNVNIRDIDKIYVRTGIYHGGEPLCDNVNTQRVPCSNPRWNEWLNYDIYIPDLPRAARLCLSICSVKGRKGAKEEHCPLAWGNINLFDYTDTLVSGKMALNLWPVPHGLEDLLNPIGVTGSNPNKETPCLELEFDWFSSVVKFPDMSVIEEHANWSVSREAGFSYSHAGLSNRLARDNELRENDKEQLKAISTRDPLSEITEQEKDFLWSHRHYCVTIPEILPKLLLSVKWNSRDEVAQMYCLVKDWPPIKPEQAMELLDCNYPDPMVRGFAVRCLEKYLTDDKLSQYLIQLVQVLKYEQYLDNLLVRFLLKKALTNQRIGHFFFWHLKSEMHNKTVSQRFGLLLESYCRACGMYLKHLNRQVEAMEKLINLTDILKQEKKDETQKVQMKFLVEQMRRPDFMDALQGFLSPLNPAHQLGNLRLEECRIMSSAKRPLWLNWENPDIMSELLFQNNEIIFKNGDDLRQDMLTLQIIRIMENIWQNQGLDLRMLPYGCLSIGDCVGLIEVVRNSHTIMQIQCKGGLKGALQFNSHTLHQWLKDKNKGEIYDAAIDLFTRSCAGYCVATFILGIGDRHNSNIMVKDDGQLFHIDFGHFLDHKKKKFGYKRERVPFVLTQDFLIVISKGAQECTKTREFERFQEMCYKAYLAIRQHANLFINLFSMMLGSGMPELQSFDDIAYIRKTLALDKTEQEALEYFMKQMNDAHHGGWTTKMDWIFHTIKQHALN
PI3Kα, sequence (P27986 whole entry partner, species assumed): as the sequence (P27986 whole entry partner, species assumed) above
PI3Kδ, sequence (O00329 whole entry, species assumed): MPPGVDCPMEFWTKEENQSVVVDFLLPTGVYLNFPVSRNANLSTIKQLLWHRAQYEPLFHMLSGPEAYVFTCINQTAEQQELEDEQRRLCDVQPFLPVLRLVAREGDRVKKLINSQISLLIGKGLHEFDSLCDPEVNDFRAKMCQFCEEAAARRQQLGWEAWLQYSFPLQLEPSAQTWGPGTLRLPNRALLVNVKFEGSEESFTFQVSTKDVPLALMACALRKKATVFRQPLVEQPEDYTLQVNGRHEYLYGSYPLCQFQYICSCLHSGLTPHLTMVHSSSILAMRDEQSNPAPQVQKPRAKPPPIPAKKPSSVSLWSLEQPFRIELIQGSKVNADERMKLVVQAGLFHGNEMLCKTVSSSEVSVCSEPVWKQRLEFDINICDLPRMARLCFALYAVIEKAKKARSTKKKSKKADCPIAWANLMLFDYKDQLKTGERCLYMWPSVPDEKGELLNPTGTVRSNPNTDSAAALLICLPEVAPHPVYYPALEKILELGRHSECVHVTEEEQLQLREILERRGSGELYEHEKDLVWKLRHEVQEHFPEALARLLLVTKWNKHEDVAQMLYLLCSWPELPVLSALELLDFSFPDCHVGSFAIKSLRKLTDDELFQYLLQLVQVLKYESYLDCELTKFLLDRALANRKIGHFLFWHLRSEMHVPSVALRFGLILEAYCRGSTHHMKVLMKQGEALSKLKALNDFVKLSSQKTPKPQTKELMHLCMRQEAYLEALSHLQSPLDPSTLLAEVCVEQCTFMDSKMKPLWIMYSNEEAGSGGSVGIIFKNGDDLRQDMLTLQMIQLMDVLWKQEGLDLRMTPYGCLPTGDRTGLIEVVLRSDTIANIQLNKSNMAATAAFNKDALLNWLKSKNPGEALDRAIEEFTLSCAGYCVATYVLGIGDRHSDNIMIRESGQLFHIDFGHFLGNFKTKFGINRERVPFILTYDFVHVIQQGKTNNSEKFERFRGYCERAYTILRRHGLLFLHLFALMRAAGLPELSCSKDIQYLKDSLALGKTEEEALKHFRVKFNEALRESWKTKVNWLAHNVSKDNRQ
PI3Kδ, sequence (P27986 whole entry partner, species assumed): as the sequence (P27986 whole entry partner, species assumed) above

For CC(C)(C)NS(=O)(=O)c1cncc(-c2cc(F)c3nc(N)nn3c2)c1 [CZC24832, 5-(2-amino-8-fluoro [1,2,4]triazolo[1,5-a]pyridin-6-yl)-N-(1,1-dimethylethyl)-3-pyridinesulfonamide], the “selectivity over PI3Kδ” value (PI3Kδ) is given as greater than 100 fold, the “selectivity over PI3Kβ” value (PI3Kβ) is given as 10 fold and the “selectivity over PI3Kα” value (PI3Kα) is given as greater than 100 fold.

For CC(C)(O)CNc1ncc(-c2ccnc(Nc3ccnc(Cl)c3)n2)c(CC2CC2)n1 [VPS34-IN1, 1-[[2-[(2-chloro-4-pyridinyl)amino]-4′-(cyclopropylmethyl)[4,5′-bipyrimidin]-2′-yl]amino]-2-methyl-2-Propanol], the “inhibition of the isoforms of class I as well as class II PI3Ks” value [1] is given as “does not significantly inhibit”.

In the case of C[C@@H]1COCCN1c1cc(=O)n2c(n1)N(Cc1cncc(Cl)c1)[C@H](C(F)(F)F)CC2 [SAR405, (8S)-9-[(5-chloro-3-pyridinyl)methyl]-6,7,8,9-tetrahydro-2-[(3R)-3-methyl-4-morpholinyl]-8-(trifluoromethyl)-4H-pyrimido[1,2-a]pyrimidin-4-one], the “effect on mTOR” value (mTOR) is listed as “no effect” and the “effect on class I and class II PI3Ks” value ([1]; up to at least about 10 μM) is listed as “no effect”.
